Data reported in patent US11680047B2, “Enhanced erythropoiesis and iron metabolism” (FibroGen, Inc., priority 2003, dated 2023).
Marks after values point to notes of the source that are not given here.

Assays:
rat model of ACD = assay: Rat model of ACD (PG-PS), Experimental Series 2; assay type: in vivo
Description: Female Lewis rats (approximately 150-200 gm) were injected with PG-PS (intra-peritoneal). Arthritis and anemia were allowed to develop for 28 days. Animals were administered compound A by oral gavage twice a week (Monday and Thursday) for six weeks, corresponding to days 28, 31, 35, 38, 42, 45, 49, 52, 56, 59, 63, 66, and 70 from PG-PS injection.
Whole blood was collected via the tail vein for CBC analysis on days 28, 42, 56, and 70. In addition, serum was collected on day 70 for iron binding analysis. CBC and iron binding analysis were performed by Quality Clinical Labs (Mountain View, Calif.).
Patients with anemia of chronic disease are clinically characterized by reduced plasma iron concentrations and transferrin saturation. The effect of the present compounds on serum iron and transferrin saturation in normal and anemic animals was determined. Using an animal model of anemia of chronic disease, anemia was induced in rats by IP injection of peptidoglycan-polysaccharide polymers, as described above. Arthritis and anemia were allowed to develop for 28 days. Animals were then treated with various concentrations of compound A, twice weekly, for 6 weeks. Serum iron levels and transferrin saturation were determined by Quality Clinical Labs.

[1] = Total serum iron levels in rats treated twice weekly for 93 days; assay type: in vivo, rat
Description: Compounds were generally administered orally by gavage or IV administration. Animals treated by oral gavage received a 4-10 ml/kg volume of either 0.5% carboxymethyl cellulose (CMC; Sigma-Aldrich, St. Louis Mo.) with or without 0.1% Polysorbate 80 (0 mg/kg/day) or varying doses of a compound of the present invention (e.g., a HIF prolyl hydroxylase inhibitor) in 0.5% CMC, with or without 0.1% Polysorbate 80, using various dosing regimens. Blood samples were collected at appropriate intervals during treatment from, e.g., tail vein (rats), or abdominal vein or cardiocentesis (mice or rats). Generally, animals were anesthetized with isoflurane and blood samples were collected into MICROTAINER serum separator tubes (Becton-Dickinson, Franklin Lakes N.J.). For measurement of serum components, the tubes were incubated at room temperature for 30 minutes, and then centrifuged at 8,000 rpm at 4° C. for 10 minutes. The serum fraction was then processed and analyzed for the presence of specific components, e.g., serum iron (assay performed by Quality Clinical Labs, Mountain View, Calif.). For determination of hematocrit, blood samples were collected into MICROTAINER EDTA-2K tubes (Becton-Dickinson); EDTA-blood was then drawn into 75 mm×1.1-1.2 mm I.D. capillary tubes (Chase Scientific Glass, Inc., Rockwood Tenn.) to approximately % length, one end of the tube was sealed with CRITOSEAL sealant (Sherwood Medical Company), and the tubes were centrifuged in a J-503M MICROHEMATOCRIT centrifuge (Jorgensen Laboratories, Inc., Loveland Colo.) at 12,000 rpm for 5 minutes. Hematocrit was read against a reader card. When indicated, complete blood count (CBC) analysis, including blood hemoglobin level, reticulocyte number, and hematocrit, was performed by Quality Clinical Labs (Mountain View, Calif.).
Male and female rats were treated twice weekly (Monday and Thursday) with various concentrations (0, 20, 60, or 150 mg/kg) of compound A for 93 days. Total serum iron levels were determined.

NRAMP2 = assay: Intestinal NRAMP2 mRNA in rats of ACD Series 2 (microarray); assay type: in vivo, rat
Description: At week 6 following administration of compound A in anemic animals (40 mg/kg, twice a week), microarray analysis was performed to examine expression of genes encoding proteins involved with iron transport and absorption in intestine. Microarray analysis was performed using methods described above, using The Rat Genome 230A array (Affymetirx), which represents all sequence in the Rat Unigene database build 99 (National Center for Biotechnology Information, Bethesda, Md.), including approximately 4,699 well-characterized rat genes and approximately 10,467 EST sequences and approximately 700 non-EST sequences.

VCAM-1 = assay: TNF-α induced VCAM-1 expression in HUVEC; assay type: cell-based, human; conditions: TNF-α 1 ng/ml, 1 day
Source text: Endothelial cell adhesiveness for lymphocytes occurs, in part, by endothelial cell expression of vascular cell adhesion molecule (VCAM)-1. VCAM-1 expression in endothelial cells is induced by various inflammatory cytokines, such as TNF-α. To investigate the effect of HIF prolyl hydroxylase inhibition on TNF-α induced VCAM-1 expression, HUVEC (human umbilical vein endothelial cells) were stimulated with TNF-α in the absence or presence of various concentrations of compound B or compound C for 1 day. VCAM expression was then measured.
Endothelial E-selectin belongs to the selectin family of cellular adhesion molecules mediating the initial attachment of leukocytes to vascular endothelial cells in inflammatory events. IL-1β, TNF-α, and lipopolysaccharides each induce the expression of E-selectin. (See, e.g., Bevilacqua et al. (1987) Proc Natl Acad Sci USA 84:9238-9242 and Bevilacqua and van Furth (1993) J Leukoc Biol 54:363-378.) To investigate the effect of HIF prolyl hydroxylase inhibition on TNF-α induced E-selectin expression, HUVECs were stimulated with 1 ng/ml TNF-α in the absence or presence of various concentrations of compound B or compound C for 1 day. E-selectin and VCAM expression were then measured.

E-selectin = assay: Cell surface E-selectin (cell-based ELISA) in HUVEC pretreated with compound, then cytokines; set-up: species or system human; conditions: HUVEC pretreated 24 hours
Description: HUVEC were treated with vehicle control or various concentrations of compound B or compound C for 24 hours. Cells were washed and then stimulated with either 1 ng/ml TNF-α, 1 ng/ml IL-1β, or a combination of 1 ng/ml each of TNF-α, IL-1β, and IFN-γ for 4 hours. Cell surface expression of E-selectin was measured by cell-based ELISA.

[2] = anemic rats, twice a week for six weeks

Structure (SMILES) | serum iron levels (rat model of ACD; anemic (PG-PS) and non-anemic control (sham) rats, twice weekly, 6 weeks) | hemoglobin levels (rat model of ACD; anemic rats, 10 mg/kg, 20 mg/kg or 40 mg/kg twice weekly) | red blood cell counts (rat model of ACD; anemic rats, from 2 weeks, over the 6 week period) | hematocrit levels (rat model of ACD; anemic rats, oral gavage twice a week) | mean corpuscular hemoglobin levels (rat model of ACD; [2]) | mean corpuscular volume (rat model of ACD; [2]) | hemoglobin levels (rat model of ACD; non-anemic rats, 40 mg/kg twice a week) | hematocrit levels (rat model of ACD; non-challenged (non-anemic) rats, 40 mg/kg twice a week) | transferrin saturation (rat model of ACD; vs non-treated non-anemic and non-treated anemic rats, twice weekly, 6 weeks) | Serum Iron Female Rats (Mean +/− SD) ([1]; 20 mg/kg twice weekly) | Serum Iron Female Rats (Mean +/− SD) ([1]; 60 mg/kg twice weekly) | Serum Iron Female Rats (Mean +/− SD) ([1]; 150 mg/kg twice weekly) [µg/dL] | Serum Iron Male Rats (Mean +/− SD) ([1]; 20 mg/kg twice weekly) [µg/dL] | Serum Iron Male Rats (Mean +/− SD) ([1]; 60 mg/kg twice weekly) | Serum Iron Male Rats (Mean +/− SD) ([1]; 150 mg/kg twice weekly) | intestinal expression of NRAMP2 (NRAMP2; anemic rats, 40 mg/kg twice a week, week 6) | intestinal expression of mRNA for NRAMP2 (NRAMP2; control rats) | inhibition of TNF-α induced VCAM-1 expression (VCAM-1) | induction of cell surface E-selectin expression (E-selectin; then 1 ng/ml TNF-α or 1 ng/ml IL-1β for 4 hours) | cell surface E-selectin expression (E-selectin; then TNF-α, IL-1β and IFN-γ, 1 ng/ml each, 4 hours)
O=C(O)CNC(=O)c1nc(Cl)c2ccccc2c1O [Compound A, [(1-Chloro-4-hydroxy-isoquinoline-3-carbonyl)-amino]-acetic acid] | increased serum iron levels | hemoglobin levels increased | red blood cell counts were increased | increased hematocrit levels | reduction in the decrease in mean corpuscular hemoglobin levels | reduction of the decrease in mean corpuscular volume | approximately 110 % of that in non-treated control animals | greater than 110 % of that in non-challenged non-treated animals | increased transferrin saturation | 505 +/− 41 * µg/dL | 445 +/− 46 * µg/dL | 399 ± 117 | 198 ± 64 | 357 +/− 111 * µg/dL | 307 +/− 142 * µg/dL | increased expression of both NRAMP2 and sproutin in intestine | increased intestinal expression of mRNA for NRAMP2 |  |  | 
O=C(O)CNC(=O)c1ncc2cc(Oc3ccccc3)ccc2c1O [Compound B, [(4-Hydroxy-7-phenoxy-isoquinoline-3-carbonyl)-amino]-acetic acid] |  |  |  |  |  |  |  |  |  |  |  |  |  |  |  |  |  | does-dependent inhibition of TNF-α induced VCAM-1 expression | inhibited the induction of cell surface E-selectin expression | decreased E-selectin expression
